Measurements taken from publication PMC6788505 (2019).

Columns and labels:
[1] = tested on: CA40 (DNA, aptamer) ACGCTCCGGACTTGGGTGGGTGGGTTGGGGTACGGTGCGT; assay: fluorescence titration (intrinsic irinotecan fluorescence); conditions: working buffer; 1 µM irinotecan titrated with aptamer; excitation 370 nm
[2] = tested on: CA40_1MM (DNA, aptamer) ACGCTCCGGACTTGGGTGGGTGGGTTGGGGTACGGTGTGT; assay: E-AB sensor, square-wave voltammetry; conditions: working buffer; apparent; surface-bound
[3] = tested on: CA40_2MM (DNA, aptamer) ACGCTCTGGACTTGGGTGGGTGGGTTGGGGTACGGTGTGT; assay: E-AB sensor, square-wave voltammetry; conditions: working buffer; apparent; surface-bound
[4] = tested on: CA28 (DNA, aptamer) CGGACTTGGGTGGGTGGGTTGGGGTACG; assay: E-AB sensor, square-wave voltammetry; conditions: working buffer; apparent; surface-bound; KD fixed in fit
[5] = tested on: CA16 (DNA, G4) GGGTGGGTGGGTTGGG; assay: E-AB sensor, square-wave voltammetry; conditions: working buffer; apparent; surface-bound; KD fixed in fit
[6] = tested on: CA36 (DNA, aptamer) GCTCCGGACTTGGGTGGGTGGGTTGGGGTACGGTGC; assay: E-AB sensor, square-wave voltammetry; conditions: working buffer; apparent; surface-bound
[7] = tested on: CA32 (DNA, aptamer) TCCGGACTTGGGTGGGTGGGTTGGGGTACGGT; assay: E-AB sensor, kinetic differential measurement (10 and 120 Hz); conditions: buffer; apparent; co-deposited 1:1 with linear probe; surface-bound
[8] = tested on: CA32 (DNA, aptamer) TCCGGACTTGGGTGGGTGGGTTGGGGTACGGT; assay: E-AB sensor, square-wave voltammetry; conditions: working buffer; apparent; surface-bound

KD [1]: 0.475 ± 0.01 µM | binding [2]: yes | binding [3]: yes | binding [4]: yes | binding [5]: yes | binding [6]: yes | KD [7]: 16.0 ± 1.3 µM | binding [8]: yes
SMILES: CCc1c2c(nc3ccc(OC(=O)N4CCC(N5CCCCC5)CC4)cc13)-c1cc3c(c(=O)n1C2)COC(=O)[C@]3(O)CC
